Test results as given in patent publication US20250000875A1, “ALLOPREGNANOLONE ANALOGUES FOR HIV VIREMIA AND NEUROTOXICITY PROTECTION” (priority 2021, published 2025).

Key:
[1] = rabbits or mice, cited from earlier work
HIV-1BaL = assay: anti-viremic capacity: HIV-1BaL replication in primary human microglia, p24 accumulation; type: cell-based; conditions: for HIV-1BaL replication, accumulation of p24 HIV capsid protein: HIV-1BaL 1 ng/mL p24, over 10 days; for effect on efficacy of cART when co-administered: co-administered with cART
Protocol: […] Corp.) as described previously.
Assessment for viremia: Media, compounds 1-6, or 3α,5α-THP was assessed in a dose-response curve (0.1, 0.3, 1, 3.2, 10, 32, 100, 320, 1×10^3, 10×10^3, 100×10^3 nM) for their anti-viremic capacity (FIG. 9). To monitor infection, samples are taken every 72 h to measure p24 or proviral DNA129-130. Infection was confirmed post-hoc via immunocytochemical imaging of HIV-1 negative regulatory factor (Nef). As needed, TZM-bl and Jurkat reporter cells were also used to determine viral proliferation.
Interactions with cART: Efficacious concentrations were re-assessed in separate mock- or HIV-1BaL-infected cultures in the presence or absence of Triumeq® [Abacavir (ABC; 10 μM)/dolutegravir (DTG; 1 nM)/lamivudine (3TC; 30 μM) dosing derived from FDA-approved insert] to assess interactions with viremic control, cytotoxicity, and cytokine production.

[2] = test system: mouse primary medium spiny neurons in mixed glial co-culture; assay: Tat and/or gp120 neurotoxicity (necrosis, propidium iodide) in neuron/mixed glia co-culture; type: cell-based; conditions: for baseline cell death: highest concentrations; for Tat and/or gp120-mediated necrosis / neurotoxicity: pretreatment, 0.001-10×10^3 nM, HIV-1 Tat and/or gp120 for 20 h
Protocol: The trans-diol analogue of 3α, 5α-THP, 5α-pregnan-2β,3α-diol-20-one (compound 1) was synthesized. Mixed glia (derived from 0-1 day old mouse pups) and primary medium spiny neurons (from the striatum of E17 pups) were co-cultured as previously described. Co-cultures were pretreated with a concentration-response curve (0.001-10×10^3 nM) of 3α,5α-THP or the analogue, 1, and exposed to HIV-1 Tat and/or gp120 for 20 h. Prior time-lapse experiments have identified this time-point as the earliest time at which 3α,5α-THP protection is evident. Each treatment group consisted of 3 independent observations (with 2 technical replicates each). Necrotic cells were identified via propidium iodide labeling.

[3] = women following three consecutive SC injections; cited from earlier work
[4] = test system: primary, mouse splenocytes; assay: mitogen-stimulated proliferation of splenocytes; type: cell-based; conditions: high concentrations
[5] = biological target: HIV-1 trans-activation response element; conditions: read-out: affinity; cited from earlier work

Question: Which results are given for `CC(=O)[C@H]1CC[C@H]2[C@@H]3CC[C@H]4C[C@H](O)CC[C@]4(C)[C@H]3CC[C@]12C` [3α,5α-THP, 5α-pregnan-3α-ol-20-one]?
Answer: elimination half-life (t1/2z) ([1]; administered subcutaneously): 0.2 to 0.667 h; elimination half-life (t1/2z) in brain ([1]; infused IV): ~4 h; HIV-1BaL replication, accumulation of p24 HIV capsid protein (HIV-1BaL): attenuates; effect on efficacy of cART when co-administered (HIV-1BaL): Neither AlloP nor 1 impairs the efficacy of cART; increase in cell death ([2]; at 10 nM): 5.7%; baseline cell death [2]: increased baseline cell death modestly; Tat and/or gp120-mediated necrosis / neurotoxicity [2]: significantly attenuated necrosis at every dose assessed; plasma clearance [3]: ~4 h

Question: For `C[C@]12C[C@H](O)[C@H]3[C@@H](CCC4=CC(=O)CC[C@@]43C)[C@@H]1CC[C@@H]2C(=O)CO` [corticosterone], which mitogen-stimulated proliferation [4] is on record?
Answer: Its mitogen-stimulated proliferation is “reduce mitogen-stimulated proliferation”.

Question: Which Kd [5] does the source give for `CN(C)[C@H]1C[C@@]23CC[C@@]4(O2)C(=CC[C@]2(C)C(c5ccc6ccncc6c5)=CC[C@H]24)C=C3[C@@H](O)[C@@H]1O` [dCA, didehydro-cortistatin A] here?
Answer: Its Kd is 1 to 2 nM.

Question: Which results are given for `CC(=O)[C@H]1CC[C@H]2[C@@H]3CC[C@H]4C[C@H](O)[C@@H](O)C[C@]4(C)[C@H]3CC[C@]12C` [compound 1, 2β,3α-dihydroxy-5α-pregnan-20-one]?
Answer: HIV-1BaL replication, accumulation of p24 HIV capsid protein (HIV-1BaL): attenuates; effect on efficacy of cART when co-administered (HIV-1BaL): Neither AlloP nor 1 impairs the efficacy of cART; potency in ameliorating Tat-neurotoxicity relative to 3α,5α-THP [2]: equipotent to 3α,5α-THP; increase in cell death ([2]; at 1 nM): 8.8%; increase in cell death ([2]; at 10 nM): 10.5%; baseline cell death [2]: increased baseline cell death modestly; Tat and/or gp120-mediated necrosis / neurotoxicity ([2]; listed as analogue 1): significantly attenuated necrosis at every dose assessed
